According to patent publication US9169234B2, “Sepiapterin reductase inhibitors for the treatment of pain” (Children's Medical Center Corporation, priority 2009, dated 2015):

These compounds were tested against recombinant human SPR (Sepiapterin Reductase) (Homo sapiens (Human), UniProt P35270) (assay: SPR inhibition biochemical assay with chromogenic (OD at 420 nm) and LC/MS (L-biopterin formation) read-out). Conditions: LC/MS read-out, L-biopterin product formation; SPR 6 nM, L-Sepiapterin 50 μM, NADPH 100 μM, pH 6.5, 60 minutes at 37° C.; read-out: IC50 LC/MS.
Sequence of recombinant human SPR (Sepiapterin Reductase) (P35270 whole entry): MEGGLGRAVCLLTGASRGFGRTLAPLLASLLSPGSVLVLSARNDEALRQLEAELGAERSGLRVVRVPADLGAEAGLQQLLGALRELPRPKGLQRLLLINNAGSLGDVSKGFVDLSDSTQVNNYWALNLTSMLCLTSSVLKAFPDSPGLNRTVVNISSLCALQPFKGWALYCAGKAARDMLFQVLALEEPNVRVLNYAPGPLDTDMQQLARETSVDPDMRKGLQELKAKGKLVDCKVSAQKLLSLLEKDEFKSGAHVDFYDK
Protocol: The compounds described herein were screened for activity as inhibitors of Sepiapterin Reductase (SPR).
Bacteria were grown at 37° C., and expression of SPR protein was induced for 4 hours.
To screen for SPR inhibition, a biochemical assay based on LC/MS (and chromogenic) read-out has been developed. The LC/MS assay monitors the product formation (L-biopterin) and the chromogenic assay measures OD at 420 nm.
N-methoxyacetyl serotonin was used as a reference compound (positive control).
The exemplary assay protocol uses the following conditions: SPR (6 nM); L-Sepiapterin (50 μM); NADPH (100 μM); Na-Phosphate buffer, pH 6.5 (100 mM); 82 μL assay volume; 60 minutes incubation with compounds (0.5% final concentration in DMSO) at 37° C. in Greiner μClear® 384 well plates.
For example, the compounds of Table 1 were screened using this additional method in triplicate.
`CC(C)C(=O)NCCc1c[nH]c2ccc(O)cc12` [(1)] gave an IC50 of 330 nM. `O=C(NCCc1c[nH]c2ccc(O)cc12)C1CC1` [(2)] gave an IC50 of 340 nM. For `CCOCC(=O)NCCc1c[nH]c2ccc(O)cc12` [(3)], the IC50 was 2200 nM. `Oc1ccc2[nH]cc(CCNc3cccnc3)c2c1` [(12)] gave an IC50 of 1600 nM. Work on `COCC(=O)NCCc1c[nH]c2ccc(F)cc12` [(16)] yielded an IC50 of 2800 nM. `COCC(=O)NCCc1c[nH]c2ccc(S(C)(=O)=O)cc12` [(17)] was tested, and the IC50 was 3200 nM. `COCC(=O)NCCc1cn(C)c2ccc(O)cc12` [(21)] showed an IC50 of 86 nM. With `COCC(=O)NCC(=O)c1c[nH]c2ccc(O)cc12` [(24)] the IC50 was 310 nM. Compound `COCC(=O)NCCc1cccc(O)c1` [(32)] has an IC50 of 69 nM. `COCC(=O)NCCc1c[nH]c2ccc(O)cc12` [N-Methoxyacetyl-Serotonin, reference compound] showed an IC50 of 43 nM.

Same assay, conditions: chromogenic read-out, OD at 420 nm; SPR 6 nM, L-Sepiapterin 50 μM, NADPH 100 μM, pH 6.5, 60 minutes at 37° C.; read-out: IC50 chromogenic
For `CC(C)C(=O)NCCc1c[nH]c2ccc(O)cc12` [(1)], the IC50 was 400 nM. For `O=C(NCCc1c[nH]c2ccc(O)cc12)C1CC1` [(2)], the IC50 was 360 nM. Work on `CCOCC(=O)NCCc1c[nH]c2ccc(O)cc12` [(3)] yielded an IC50 of 2800 nM. For `Oc1ccc2[nH]cc(CCNc3cccnc3)c2c1` [(12)], the IC50 was 2100 nM. With `COCC(=O)NCCc1c[nH]c2ccc(F)cc12` [(16)] the IC50 was 3400 nM. Compound `COCC(=O)NCCc1c[nH]c2ccc(S(C)(=O)=O)cc12` [(17)] has an IC50 of 4500 nM. For `COCC(=O)NCCc1cn(C)c2ccc(O)cc12` [(21)], the IC50 was 84 nM. `COCC(=O)NCC(=O)c1c[nH]c2ccc(O)cc12` [(24)] was tested, and the IC50 was 310 nM. In the case of `COCC(=O)NCCc1cccc(O)c1` [(32)], the IC50 is reported as 64 nM. `COCC(=O)NCCc1c[nH]c2ccc(O)cc12` [N-Methoxyacetyl-Serotonin, reference compound] gave an IC50 of 42 nM.

Same assay, conditions: reference compound (positive control); read-out not specified; read-out: IC50 measured using the screening conditions
Compound `COCC(=O)NCCc1c[nH]c2ccc(O)cc12` [N-Methoxyacetyl-Serotonin, reference compound] has an IC50 of 20 to 40 nM.
